Test results as given in patent US4122034A, “Antimicrobial compositions” (Schering Corporation, priority 1975, dated 1978).

Columns and labels:
[1] = system: Clostridium novyi; assay: In vitro activity against anaerobes in fluid Thioglycollate medium (Table II); type: cell-based
Description: (§1) All the tests were carried out and (when necessary) scored under standard conditions. "MIC" means "minimum inhibitory concentration."
(§2) In vitro activity of 2-aminoalkyl-3-phenylindoles of the formula I
(§3) against anaerobes in fluid Thioglycollate medium

[2] = system: Clostridium septicum; assay: as above; type: cell-based
Description: as §1, §2, §3

[3] = system: Peptostreptococcus; assay: as above; type: cell-based
Description: as §1, §2, §3

[4] = system: Bacteroides melaninogenicus; assay: as above; type: cell-based
Description: as §1, §2, §3

[5] = system: Bacteroides fragilis; assay: as above; type: cell-based
Description: as §1, §2, §3

[6] = system: Bacteroides corrodens; assay: as above; type: cell-based; details: Eikenella corrodens
Description: as §1, §2, §3

[7] = system: Eubacterium lentum; assay: as above; type: cell-based; details: Eggerthella lenta
Description: as §1, §2, §3

[8] = system: Clostridium histolyticum; assay: as above; type: cell-based; details: Hathewaya histolytica
Description: as §1, §2, §3

[9] = Acute toxicity in mice (Table V); details: mouse, in vivo
Description: as §1
Acute Toxicity of 2-aminoalkyl-3-phenylindoles of the formula I

[10] = system: Tricoderm sp.; assay: In vitro antifungal activity, dilutions in Sabouraud's Dextrose Broth (Table IV); type: cell-based; details: after 96 hours
Description: as §1
(§4) In vitro Antifungal Activity of 2-amioalkyl-3-phenylindoles
(§5) of the formula I against Dermetophytes and Aspergillus.
(§6) Dilutions in Sabouraud's Dextrose Broth.

[11] = system: Trichophyton soudenense; assay: as above; type: cell-based; details: after 96 hours
Description: as §1, §4, §5, §6

[12] = system: Microsporum distortum; assay: as above; type: cell-based; details: after 96 hours
Description: as §1, §4, §5, §6

[13] = system: Trichophyton gallinae; assay: as above; type: cell-based; details: after 96 hours
Description: as §1, §4, §5, §6

[14] = system: Trichophyton ascoides; assay: as above; type: cell-based; details: after 96 hours
Description: as §1, §4, §5, §6

[15] = system: Aspergillus sp. No. 3; assay: as above; type: cell-based; details: after 96 hours
Description: as §1, §4, §5, §6

[16] = system: Trichophyton ferrugineum; assay: as above; type: cell-based; details: Microsporum ferrugineum; after 96 hours
Description: as §1, §4, §5, §6

[17] = system: Microsporum nanum; assay: as above; type: cell-based; details: Nannizzia nana; after 96 hours
Description: as §1, §4, §5, §6

[18] = system: Epidermophyton floccosum; assay: as above; type: cell-based; details: after 96 hours
Description: as §1, §4, §5, §6

[19] = system: Trichophyton tonsurans; assay: as above; type: cell-based; details: after 96 hours
Description: as §1, §4, §5, §6

[20] = system: Trichophyton rubrum; assay: as above; type: cell-based; details: 96 h
Description: as §1, §4, §5, §6

[21] = system: Trichophyton megninii; assay: as above; type: cell-based; details: Trichophyton rubrum; after 96 hours
Description: as §1, §4, §5, §6

[22] = system: Trichophyton discoides; assay: as above; type: cell-based; details: after 96 hours
Description: as §1, §4, §5, §6

[23] = system: Trichophyton schoenleinii; assay: as above; type: cell-based; details: 96 h
Description: as §1, §4, §5, §6

[24] = system: Aspergillus niger 6275; assay: as above; type: cell-based; details: after 96 hours
Description: as §1, §4, §5, §6

[25] = system: Trichophyton mentagrophytes; assay: as above; type: cell-based; details: 96 h
Description: as §1, §4, §5, §6

[26] = system: Streptococcus pyogenes; assay: In vitro antibacterial activity, dilution in Mueller Hinton Agar (Table I); type: cell-based
Description: as §1
(§7) In vitro Antibacterial Activity of 2-aminoalkyl-3-phenyl-
(§8) indoles of the formula I. Dilution in Mueller Hinton Agar pH 7.4

[27] = system: Salmonella; assay: as above; type: cell-based
Description: as §1, §7, §8

[28] = system: Proteus vulgaris; assay: as above; type: cell-based; details: strain Napol, Mueller Hinton Agar pH 7.4
Description: as §1, §7, §8

[29] = system: Proteus mirabilis; assay: as above; type: cell-based; details: Mueller Hinton Agar pH 7.4
Description: as §1, §7, §8

[30] = system: Proteus morganii; assay: as above; type: cell-based; details: Morganella morganii; strain Valz; Mueller Hinton Agar pH 7.4
Description: as §1, §7, §8

[31] = system: Staphylococcus aureus; assay: as above; type: cell-based; details: Mueller Hinton Agar pH 7.4
Description: as §1, §7, §8

[32] = system: Enterococcus; assay: as above; type: cell-based
Description: as §1, §7, §8

[33] = system: T. mentagrophytes; assay: Effect against topical T. mentagrophytes infections in guinea pigs (Table VI); type: in vivo; design: Average Sum of lesion scores, Days 1-5 / Average Sum of lesion scores, Days 1-10: scale not given here; details: for Average Sum of lesion scores, Days 1-5: untreated controls 14.8; for Average Sum of lesion scores, Days 1-10: untreated controls 38.2
Description: as §1
Effect of some 2-aminoalkyl-3-phenylindoles of the formula II
against topical T. mentagrophytes infections in guinea pigs.

[34] = system: Trychomonas vaginalis; assay: In vitro Anti-Trichomonal activity (Table VII); type: cell-based; details: for IC50: 50% suppression, read-out: Minimal Level to Produce 50% Suppression; for IC90: 90% suppression, read-out: Minimal Level to Produce 90% Suppression
Description: as §1
In vitro Anti-Trichomonal Activity of some 2-aminoalkyl-3-
phenyl-indenes of formula II.

[35] = strain Haggerty, after 96 hours
[36] = strain not given, after 96 hours
[37] = pH 7.4, strain 27, Mueller Hinton Agar pH 7.4
[38] = pH 7.4, strain C, Mueller Hinton Agar pH 7.4
[39] = pH 7.4, strain Cruz, Mueller Hinton Agar pH 7.4
[40] = TYPHI, pH 7.4, B typhi, Mueller Hinton Agar pH 7.4
[41] = pH 7.4, C1 Oao, Mueller Hinton Agar pH 7.4
[42] = pH 7.4, C2 Cuban, Mueller Hinton Agar pH 7.4
[43] = pH 7.4, C2 Napc, Mueller Hinton Agar pH 7.4
[44] = pH 7.4, Salmonella ent. 1, Mueller Hinton Agar pH 7.4
[45] = pH 7.4, strain 373, Mueller Hinton Agar pH 7.4
[46] = pH 7.4, strain 0928/72, Mueller Hinton Agar pH 7.4

NCc1[nH]c2cc(Br)c(Cl)cc2c1-c1ccccc1 [D, 2-aminomethyl-6-bromo-5-chloro-3-phenylindole]
14.2: Average Sum of lesion scores, Days 1-10 ([33]; concentration 4%)
~950 mg/kg: LD50 ([9]; Oral)
29.2: Average Sum of lesion scores, Days 1-10 ([33]; concentration 1%)
11.8: Average Sum of lesion scores, Days 1-5 ([33]; concentration 4%)
175 mg/kg: LD50 ([9]; ip, I.P.)
7.5 µg/mL: MIC [10] | MIC [14] | MIC [18] | MIC ([20]; strain Blehl, after 96 hours) | MIC [20, 35] | MIC [22] | MIC ([23]; strain 2, after 96 hours) | MIC [23, 36] | MIC ([25]; strain A, after 96 hours) | MIC ([25]; strain H377, after 96 hours) | MIC ([25]; strain Young, after 96 hours)
17.5 µg/mL: MIC [15] | MIC [16] | MIC [19] | MIC [24]
3 µg/mL: MIC ([4]; 48 hrs) | MIC ([4]; 72 hrs) | MIC [11] | MIC [12] | MIC [17] | MIC ([20]; strain 3, after 96 hours) | MIC ([20]; strain 360, after 96 hours) | MIC [21] | MIC ([25]; strain B, after 96 hours) | MIC ([25]; strain C, after 96 hours) | MIC [26, 37] | MIC [26, 38] | MIC [26, 39] | MIC [27, 40] | MIC [27, 41] | MIC [27, 42] | MIC [27, 43] | MIC [27, 44] | MIC [28] | MIC ([29]; pH 7.4, strain Hard) | MIC ([29]; pH 7.4, strain Peras) | MIC [30] | MIC ([31]; 209P, pH 7.4, strain 209P) | MIC ([31]; pH 7.4, strain 59N) | MIC ([31]; pH 7.4, strain Gray) | MIC ([31]; pH 7.4, strain Wood) | MIC ([31]; pH 7.4, strain Zeigler) | MIC [32, 45] | MIC [32, 46]
75 µg/mL: MIC [13]
750 mg/kg: LD50 ([9]; sc, S.C.)
6.2 days: Average No. of Days to become negative, Cultures ([33]; concentration 4%)
0.75 µg/mL: MIC ([1]; 48 hrs) | MIC ([1]; 72 hrs) | MIC ([2]; 48 hrs) | MIC ([2]; 72 hrs) | MIC ([5]; 48 hrs) | MIC ([5]; 72 hrs) | MIC ([6]; 48 hrs) | MIC ([6]; 72 hrs) | MIC ([7]; 48 hrs) | MIC ([7]; 72 hrs)
38 µg/mL: IC90 [34]
20 µg/mL: IC50 [34]
> 22 days: Average No. of Days to become negative, Cultures ([33]; concentration 1%) | Average No. of Days to become negative, Lesion ([33]; concentration 1%)
8.8 days: Average No. of Days to become negative, Lesion ([33]; concentration 4%)
11.6: Average Sum of lesion scores, Days 1-5 ([33]; concentration 1%)
0.3 µg/mL: MIC ([3]; 48 hrs) | MIC ([3]; 72 hrs) | MIC ([8]; 48 hrs) | MIC ([8]; 72 hrs)

NCc1[nH]c2ccc(Cl)cc2c1-c1ccc(Cl)cc1Cl [E]
17.5 µg/mL: MIC [13] | MIC [15] | MIC [24] | MIC ([25]; strain B, after 96 hours) | MIC ([25]; strain C, after 96 hours) | MIC ([29]; pH 7.4, strain Peras) | MIC [30]
~700 mg/kg: LD50 ([9]; Oral)
9.2 days: Average No. of Days to become negative, Lesion ([33]; concentration 4%)
3 µg/mL: MIC ([4]; 48 hrs) | MIC ([4]; 72 hrs) | MIC ([6]; 72 hrs) | MIC ([7]; 48 hrs) | MIC ([7]; 72 hrs) | MIC [10] | MIC [12] | MIC [17] | MIC [18] | MIC ([20]; strain 3, after 96 hours) | MIC ([20]; strain 360, after 96 hours) | MIC ([20]; strain Blehl, after 96 hours) | MIC [20, 35] | MIC [21] | MIC ([23]; strain 2, after 96 hours) | MIC [23, 36] | MIC ([25]; strain A, after 96 hours) | MIC ([25]; strain Young, after 96 hours) | MIC [26, 37] | MIC [26, 38] | MIC [27, 40] | MIC [27, 41] | MIC [27, 42] | MIC [27, 43] | MIC [27, 44] | MIC [28] | MIC ([29]; pH 7.4, strain Hard) | MIC ([31]; 209P, pH 7.4, strain 209P) | MIC ([31]; pH 7.4, strain 59N) | MIC ([31]; pH 7.4, strain Gray) | MIC ([31]; pH 7.4, strain Wood) | MIC [32, 45] | MIC [32, 46]
7.5 µg/mL: MIC [11] | MIC [14] | MIC [16] | MIC [19] | MIC [22] | MIC ([25]; strain H377, after 96 hours)
14 µg/mL: IC50 [34]
11.6: Average Sum of lesion scores, Days 1-5 ([33]; concentration 4%)
> 22 days: Average No. of Days to become negative, Cultures ([33]; concentration 1%) | Average No. of Days to become negative, Lesion ([33]; concentration 1%)
15.2: Average Sum of lesion scores, Days 1-10 ([33]; concentration 4%)
6.6 days: Average No. of Days to become negative, Cultures ([33]; concentration 4%)
0.3 µg/mL: MIC ([8]; 48 hrs) | MIC ([8]; 72 hrs)
540 mg/kg: LD50 ([9]; sc, S.C.)
28 µg/mL: IC90 [34]
85 mg/kg: LD50 ([9]; ip, I.P.)
0.8 µg/mL: MIC [26, 39] | MIC ([31]; pH 7.4, strain Zeigler)
34.2: Average Sum of lesion scores, Days 1-10 ([33]; concentration 1%)
12.6: Average Sum of lesion scores, Days 1-5 ([33]; concentration 1%)
0.75 µg/mL: MIC ([1]; 48 hrs) | MIC ([1]; 72 hrs) | MIC ([2]; 48 hrs) | MIC ([2]; 72 hrs) | MIC ([3]; 48 hrs) | MIC ([3]; 72 hrs) | MIC ([5]; 48 hrs) | MIC ([5]; 72 hrs) | MIC ([6]; 48 hrs)
